Two compounds from patent publication US11897863B2, “Indazole amine derivative, preparation method therefor and medical use thereof” (ZHEJIANG HISUN PHARMACEUTICAL CO., LTD., priority 2018, dated 2024) can be followed below.

The nature of data set [1]: Solubility test in phosphate buffer solution (PBS, pH7.4). The class given is physicochemical. The settings on record: PBS pH 7.4, room temperature, LC-UV.
Description: 1.5 mg of the test compound was taken, and PBS was added thereto to prepare the test solution with theoretical concentration of 2 mg·mL^−1. The test solution was ultrasonicated for 10 min, and rotated on a rotating tray at room temperature for at least 8 h. After the rotation treatment, the test solution was ultrasonicated for 10 min and centrifuged at 13000 rpm for 15 min. 100 μL of supernatant was transferred to a 0.6 mL new tube for spinning and rinsing for 5 min. 500 μL of supernatant was transferred into the above rinsed 0.6 mL tube. Then the tube was centrifuged at 13000 rpm for 15 min, and the supernatant was taken (or diluted) for analysis by LC-UV. Sample concentration was quantified by standard curve fitting (3 points).
In data set [2] the test system is TNF-α secretion in THP-1 cells. Put plainly: cells. Particulars: Homo sapiens, THP-1, 5 h, read-out: IC50 in inhibiting TNF-α secretion in THP-1 cells.
Description: Method for Determining THP-1 Cell Activity
In this experiment, TNF-α secretion was triggered by lipopolysaccharide (LPS) incubation.
After induced differentiation under the condition of 37° C. and 5% CO2 for 48 h, adherent macrophages were produced. Then PMA supernatant was removed and PBS was used to wash the cells once. In each case, all the drugs were dissolved in 100% DMSO to obtain an initial concentration of 10 mM. The drugs were filtered with 0.22 μm sterile filter membrane before use. LPS was dissolved in PBS with an initial concentration of 1 mg/mL. During use, it was diluted to 20 μg/mL with PBS. […] 200 μL of drugs were added to each well, and 50 μL of 20 μg/ml LPS (final concentration: 4 μg/mL) was added to each well. They were incubated in a 5% CO 2 incubator at 37° C. for 5 h. […]
Determination by using TNF-α ELISA kit: the amount of TNF-α was determined by R&D System Human TNF-α ELISA kit. […] 50 μL of Stop Solution (2N sulfuric acid stop solution) was added to each well and evenly mixed, and the absorbance at 450 nm was measured with microplate reader within 30 min. Compared with the fluorescence intensity ratio of the control group, the inhibition rate of the compound at each concentration was calculated, and then the IC 50 value of the compound was calculated by fitting the nonlinear curve of logarithmic concentration-inhibition rate with GraphPad Prism5.

For the compound `CC(C)(O)CCn1cc2cc(NC(=O)c3cccc(C(F)(F)F)n3)c(C(C)(C)O)cc2n1` [BAY-1834845], the “Solubility in phosphate buffer solution (PBS, pH 7.4)” value in data set [1] is listed as 6.7 uM.

As to `CN(C)CCn1cc2cc(NC(=O)c3cccc(C(F)(F)F)n3)c(C(C)(C)O)cc2n1` [Compound 1, N-(2-(2-(dimethylamino)ethyl)-6-(2-hydroxypropan-2-yl)-2H-indazol-5-yl)-6-(trifluoromethyl)pyridin-2-carboxamide], the 50% inhibitory concentration (IC50) in data set [2] was found to be 55 nM.

The IC50 is the concentration that gives 50% inhibition.
